From patent publication US12514834B2, “Pharmaceutical composition for treating and/or preventing renal cystic ciliopathy” (Kyoto University, priority 2022, dated 2026)

What was measured:
[1] = system: cysts of collecting duct organoids from PKD1 knockout iPS cells (1383D2 cell line); assay: Cyst enlargement inhibition in cysts from artificial collecting duct organoids induced from PKD1 knockout iPS cells; assay type: cell-based, human; conditions: 0.1 μM compound, with 2.5 μM AVP, 3 days of culturing, vs 0.1% DMSO; FIGS. 1-5
Description: Using PKD1 knockout iPS cells of the 1383D2 cell line, artificial collecting duct organoids with cystic structures were induced by the above method. The following protocol was used to examine compounds that inhibit cyst enlargement. • 1. Organoids in which cyst formation was occurring were collected in tubes. • 2. Medium was removed and 2 ml of Cell Recovery Solution was added. (4° C., 30 minutes) • 3. Gel was dissolved by gentle pipetting with a P-1000 pipetteman and then centrifuged. (500 g, 2 minutes) • 4. After removing the supernatant from 3 and adding 5 ml of FBS-containing medium (STO medium), cysts were separated from the organoids by pipetting. • 5. Using a stereomicroscope, cysts were collected in 15 ml tubes. • 6. The supernatant was removed, and then 2 ml of Accutase was added to perform treatment at 37° C. for 5 minutes. • 7. Cells were dissociated down to single cells by pipetting with a P-1000 pipetteman. • 8. After filtering, cells were counted. • 9. After cell counting, a cell suspension containing the required number of cells was transferred to a tube, and then 5 ml of FBS-containing medium (STO medium) was added to stop the Accutase reaction. To seed at 5×10^4 cells/well, the amount of the cell suspension required was calculated. • 10. Pellets were prepared by centrifugation (200 g, 5 minutes). • 11. The supernatant was thoroughly removed, and then DMEM/F12+B27 w/o V.A. medium (10% Afamin/Wnt3a CM, 200 ng/ml R-Spondin 1, 200 ng/ml FGF1, 10 μM Forskolin, 2.5 μM AVP, 10 μM Y27632) was added for suspension. To seed at 5×10^4 cells/well, the amount of medium required was calculated. • 12. The cell suspension from 11 was seeded at 5×10^4 cells/well into pre-prepared 50% Matrigel plates. The cell suspension was added slowly to avoid disrupting the Matrigel. • 13. […] Nine (9) locations inside the wells were photographed using a 4× objective lens under a fluorescence microscope (Keyence, BZ-X700), the cyst area was measured using a BZ-X Analyzer, and then the average value was calculated.
Cyst enlargement-inhibiting compounds to be evaluated in step 14 were added. […]

[2] = system: Pkd1flox/flox:Ksp-Cre mice (ADPKD model); assay: ATRA treatment of ADPKD model mice; assay type: in vivo, mouse
From the text: Pkd1^flox/flox:Ksp-cre mice, which are ADPKD model mice, develop numerous cysts progressively after birth and die at approximately 14 days of age due to renal failure.
Mouse lineages were maintained with heterozygous Pkd1^flox/+:Ksp-Cre mice, and Pkd1^flox/flox:Ksp-cre mice were generated by mating mice of the same lineage.
On postnatal day 3, Pkd1^flox/flox:Ksp-cre mice (Cystic) and Pkd1^flox/+:Ksp-Cre mice (Non-cystic) were intraperitoneally administered with ATRA (Sigma, #R2625) dissolved in sunflower oil containing 2% DMSO (solvent) to achieve a dose of 10 mg/kg. A group of mice administered with only the solvent intraperitoneally was served as a negative control. Mice were euthanized on postnatal day 9, and renal tissues and blood samples were collected.
BUN in mouse serum was measured using an UN-L kit (Serotec, #A667-00).
Kidneys were fixed in 4% paraformaldehyde solution, and 4 μm-thick paraffin sections were prepared. After deparaffinization, HE staining was performed and renal tissues were photographed under an optical microscope. Cystic index was calculated by total cystic area/total renal tissue area×100 using image analysis and measurement software (WinROOF, Mitani Corporation).
Therapeutic effects of ATRA on ADPKD model mice Since ATRA has already been used as a therapeutic agent for Acute Promyelocytic Leukemia (APL) patients, the efficacy of ATRA in ADPKD model mice was examined from a drug repositioning perspective. To reflect the in vitro results of ATRA on collecting duct cyst enlargement in in vivo, Pkd1^flox/flox:Ksp-Cre mice, in which the Pkd1 allele is conditionally inactivated under expression of kidney-specific Ksp-Cre recombinase in the distal nephron segments and collecting ducts, were used. The mice develop renal failure from birth due to progressive cyst formation and die about 2 weeks after birth. Because Ksp cadherin is specifically expressed in the collecting ducts and distal tubules, cysts originating from the collecting ducts and distal tubules are formed in these ADPKD model mice. ATRA was administered at 10 mg/kg intraperitoneally to mice on postnatal day 3 (P3), and mice were then sacrificed at P9 (FIG. 12).

[3] = system: cyst cells from PKD1 knockout iPS cell-derived collecting duct organoids; assay: Microarray comparison of gene expression in cyst cells cultured with and without TTNPB (GSEA, heat maps); assay type: cell-based, human; conditions: 0.1 μM TTNPB, cysts on day 5 of culture
Description: For comprehensive profiling of transcripts encoding human proteins, microarray analysis was performed at Filgen using the Human 8×60K LncRNA expression array (ArrayStar). Labeling of samples and array hybridization were performed according to the Agilent One-Color Microarray-Based Gene Expression Analysis protocol (Agilent Technology). Data were collected using Agilent's Feature Extraction software. Raw signal intensities were normalized using the quantile normalization method of GeneSpring GX v12.1.
To clarify the mechanism of action of TTNPB, gene expression in cyst cells cultured with and without TTNPB was compared by microarray (FIGS. 6 and 7).

[4] = 10 mg/kg intraperitoneally on P3, P9, FIG. 14

Compound	cyst size (cyst area) [1]	cyst formation on the cortical side (HE-stained renal tissue sections) [2, 4]	kidney size (HE-stained renal tissue sections) [2, 4]	ratio of kidney weights to body weight (2KW/BW) ([2]; 10 mg/kg intraperitoneally on P3, P9, vs solvent, FIG. 13)	cystic index (proportion of the area occupied by cysts in the renal tissue) ([2]; 10 mg/kg intraperitoneally on P3, P9, vs solvent, FIG. 15)	body weight ([2]; 10 mg/kg intraperitoneally on P3, sacrificed at P9, FIG. 12)	BUN (blood urea nitrogen) levels ([2]; 10 mg/kg intraperitoneally on P3, serum at P9, vs control mice treated with solvent, FIG. 16)	TGFβ signaling pathway (GSEA) ([3]; FIG. 8)	expression levels of MMP1, SLC2A1, CFTR, and HMGCR ([3]; heat map FIG. 9)	expression of cellular senescence marker genes such as CDKN2B (p15) ([3]; heat map FIG. 10)
CC1(C)CCC(C)(C)c2cc(NC(=O)c3ccc(C(=O)O)cc3)ccc21 [AM80, tamibarotene]	significantly reduced the cyst sizes									
CC1=C(/C=C/C(C)=C/C=C/C(C)=C/C(=O)O)C(C)(C)CCC1 [ATRA, all-trans retinoic acid]	reduced the cyst sizes	tended to inhibit cyst formation on the cortical side	suppressed the increase in kidney size	significantly decreased	significantly reduced	No significant body weight loss	significantly lower			
C/C(=C\c1ccc(C(=O)O)cc1)c1ccc2c(c1)C(C)(C)CCC2(C)C [TTNPB, 4-[(E)-2-(5,6,7,8-tetrahydro-5,5,8,8-tetramethyl-2-naphthalenyl)-1-propenyl]benzoic acid]	significant reduction in cyst size							inhibited	decreased	promotes the expression
